Reference: patent publication US12286437B2, “Cardiac sarcomere inhibitors” (Cytokinetics, Inc., priority 2021, dated 2025)

Tests used:
[1] = Dog cassette dosing pharmacokinetics; assay type: in vivo, beagle dogs; conditions: male, beagle, plasma, IV; for Vd: read-out: Vss; for half-life: read-out: t½ (converted)
Method: Non-naïve male beagle dogs (8 months to 3 years of age, body weight 8-14 kg) sourced from Jiangsu Johnsen Bioresource CO. and/or Beijing Rixinkeji CO., LTD and/or Beijing Marshall Biotechnology CO., LTD were used in this study. All animals for IV administration had free access to food and water. The IV dose solution was prepared in 10% DMA/50% PG/40% HPβCD solution (40% w/v aqueous HPβCD) at a concentration of 0.2 mg/mL. Concentrations of IV dose was measured at the end of the study. PK parameters were calculated using the nominal dose values if the measured values were within 20% of the nominal values. Blood samples were collected by venipuncture of peripheral veins except the dosing vein at pre-dose, 5 15, 30 min, 1, 2, 4, 6, 8 and 24 h post-dose. Blood samples were centrifuged and resultant plasma was frozen for bioanalysis. Plasma samples were stored at −80° C. before analysis. Plasma samples were analyzed for compound concentrations using the LC/MS/MS method. Briefly, a 50 μL aliquot of each plasma sample was mixed with 100 μL of acetonitrile that contained an internal standard. The mixture was vortexed and centrifuged. Ten (10) μL of the resulting solution was injected onto a reverse-phase C18 column and the resultant peaks detected on a LC/MS/MS equipped with a turbo ionspray ionization source. Sample concentrations below the limit of quantification (BLQ) were treated as zero for PK calculations. PK parameters were estimated from individual animals using noncompartmental analysis of the concentration-time data (Phoenix WinNonLin software, version 64; Pharsight, Mountain View, CA). The elimination rate constant (k) was calculated as the absolute value of the slope of the linear regression of logarithm (log) of the concentration versus time for the last three data points of the concentration-time profiles. Apparent elimination half-life (t1/2) values were calculated as ln(2)/k. Area under the concentration-time curve (AUC) values were estimated using linear trapezoidal method. AUCt values were calculated from the dosing time to the last measurable concentration. AUC∞ values were calculated as the sum of the corresponding AUCt and the ratio of the last detectable concentration divided by k. Plasma clearance (CL) was calculated from Dose/AUC∞. Mean resident time extrapolated to infinity (MRT∞) was estimated by moment analysis. Vss was calculated from MRT∞×CL. Maximum concentration (Cmax) and time to reach Cmax (tmax) were recorded as observed. As this was a cross-over study, bioavailability was calculated dAUC∞,po/dAUC∞,iv×100% where dAUC was the dose normalized AUC value from the same animal given IV and PO dose. Data for compounds tested are provided in Table G. Compounds tested were prepared in accordance with the synthetic procedures described herein.

[2] = test system: bovine cardiac myofibrils; test: Myofibril assay (ATPase activity of skinned bovine cardiac myofibrils, PK/LDH-coupled); assay type: biochemical; conditions: inhibition of steady-state ATPase of bovine cardiac myofibrils; CaCl2 for 50% or 75% activation
Method: To evaluate the effect of compounds on the ATPase activity of full-length cardiac myosin in the context of the native sarcomere, skinned myofibril assays were performed. Bovine cardiac myofibrils were obtained by homogenizing bovine cardiac left ventricular tissue in the presence of a detergent such as triton X-100. Such treatment removes membranes and a majority of the soluble cytoplasmic proteins but leaves intact the cardiac sarcomeric acto-myosin apparatus. Myofibril preparations retain the ability to hydrolyze ATP in a Ca^2+ regulated manner. ATPase activities of such myofibril preparations in the presence and absence of compounds were assayed at Ca^2+ concentrations activating to a defined fraction of the maximal rate (i.e., […], 75%). Small molecule agents were assessed for their ability to inhibit the steady-state ATPase activity of bovine cardiac myofibrils using pyruvate kinase and lactate dehydrogenase (PK/LDH)-coupled enzyme system. This assay regenerates myosin-produced ADP into ATP by oxidizing NADH, producing an absorbance change at 340 nm. Prior to testing small molecule agents, the bovine cardiac myofibrils were assessed for their calcium responsiveness and the calcium concentration that achieves either a 50% (pCa50) or 75% (pCa75) activation of the myofibril system was chosen as the final condition for assessing the inhibitory activity of the small molecule agents. All enzymatic activity was measured in a buffered solution containing 12 mM PIPES (piperazine-N,N′-bis(2-ethanesulfonic acid), 2 mM magnesium chloride at pH 6.8 (PM 12 buffer). Final assay conditions were 1 mg/mL of bovine cardiac myofibrils, 4 U/mL pyruvate kinase, 6 U/mL lactate dehydrogenase, 50 μM ATP, 0.1 mg/mL BSA (bovine serum albumin), 10 ppm antifoam, 1 mM DTT, 0.5 mM NADH, 1.5 mM PEP, 0.6 mM EGTA, and an amount of CaCl2 sufficient to achieve either 50% or 75% activation of the myofibril ATPase activity. Results for compounds tested are provided in Table A. Compounds tested were prepared in accordance with the synthetic procedures described herein.

[3] = Monkey cassette dosing pharmacokinetics; assay type: in vivo; conditions: IV; for clearance / Vd: male, plasma; for Vd: read-out: Vss

CC[C@H]1CC[C@H](N2CC(=O)N(Cc3ccc(F)cc3)C3(CN(C(N)=O)C3)C2=O)CC1 [Compound 2, 8-((1r,4r)-4-ethylcyclohexyl)-5-(4-fluorobenzyl)-6,9-dioxo-2,5,8-triazaspiro[3.5]nonane-2-carboxamide]
clearance [1]: 4.06 mL/min/kg
Vd [1]: 1.99 L/kg
half-life [1]: 7.34 h
CDMF IC15 [2]: 2100 nM

C[C@H]1CC[C@H](N2CC(=O)N(Cc3ccc(Cl)cc3)C3(CN(c4cccnn4)C3)C2=O)CC1 [Compound 10, 5-(4-chlorobenzyl)-8-((1r,4r)-4-methylcyclohexyl)-2-(pyridazin-3-yl)-2,5,8-triazaspiro[3.5]nonane-6,9-dione]
clearance [1]: 36.3 mL/min/kg
Vd [1]: 18.6 L/kg
half-life [1]: 9.38 h
CDMF IC15 [2]: 300 nM

CC[C@H](C)N1CC(=O)N(Cc2ccc(F)c(F)c2)C2(CN(c3cccnn3)C2)C1=O [Compound 14, (S)-8-(sec-butyl)-5-(3,4-difluorobenzyl)-2-(pyridazin-3-yl)-2,5,8-triazaspiro[3.5]nonane-6,9-dione]
clearance [1]: 36.5 mL/min/kg
Vd [1]: 6.44 L/kg
half-life [1]: 2.43 h
CDMF IC15 [2]: 1300 nM
t l/2 [3]: 1.1 h
clearance [3]: 17.1 mL/min/kg
Vd [3]: 1.48 L/kg

CC[C@H](C)N1CC(=O)N(Cc2ccc(F)c(C)c2)C2(CN(c3cccnn3)C2)C1=O [Compound 16, (S)-8-(sec-butyl)-5-(4-fluoro-3-methylbenzyl)-2-(pyridazin-3-yl)-2,5,8-triazaspiro[3.5]nonane-6,9-dione]
clearance [1]: 33 mL/min/kg
Vd [1]: 7.08 L/kg
half-life [1]: 3.07 h
CDMF IC15 [2]: 900 nM

C[C@H]1CC[C@H](N2CC(=O)N(Cc3ccc(F)c(F)c3)C3(CN(c4cccnn4)C3)C2=O)CC1 [Compound 12, 5-(3,4-difluorobenzyl)-8-((1r,4r)-4-methylcyclohexyl)-2-(pyridazin-3-yl)-2,5,8-triazaspiro[3.5]nonane-6,9-dione]
clearance [1]: 34.4 mL/min/kg
Vd [1]: 17.8 L/kg
half-life [1]: 7.39 h
CDMF IC15 [2]: 400 nM

CC[C@H]1CC[C@H](N2CC(=O)N(Cc3ccc(F)c(F)c3)C3(CN(C(N)=O)C3)C2=O)CC1 [Compound 11, 5-(3,4-difluorobenzyl)-8-((1r,4r)-4-ethylcyclohexyl)-6,9-dioxo-2,5,8-triazaspiro[3.5]nonane-2-carboxamide]
clearance [1]: 6.3 mL/min/kg
Vd [1]: 4.42 L/kg
half-life [1]: 9.66 h
CDMF IC15 [2]: 700 nM
t l/2 [3]: 3.03 h
clearance [3]: 33.1 mL/min/kg
Vd [3]: 7.26 L/kg

CC[C@H]1CC[C@H](N2CC(=O)N(Cc3ccc(Cl)cc3)C3(CN(C(N)=O)C3)C2=O)CC1 [Compound 1, 5-(4-chlorobenzyl)-8-((1r,4r)-4-ethylcyclohexyl)-6,9-dioxo-2,5,8-triazaspiro[3.5]nonane-2-carboxamide]
clearance [1]: 3.65 mL/min/kg
Vd [1]: 3.44 L/kg
half-life [1]: 12.5 h
CDMF IC15 [2]: 800 nM

C[C@H]1CC[C@H](N2CC(=O)N(Cc3ccc(F)cc3)C3(CN(c4cccnn4)C3)C2=O)CC1 [Compound 17, 5-(4-fluorobenzyl)-8-((1r,4r)-4-methylcyclohexyl)-2-(pyridazin-3-yl)-2,5,8-triazaspiro[3.5]nonane-6,9-dione]
clearance [1]: 41.9 mL/min/kg
Vd [1]: 8.25 L/kg
half-life [1]: 3.02 h
CDMF IC15 [2]: 900 nM

CCC(CC)N1CC(=O)N(Cc2ccc(F)c(F)c2)C2(CN(c3cccnn3)C2)C1=O [Compound 15, 5-(3,4-difluorobenzyl)-8-(pentan-3-yl)-2-(pyridazin-3-yl)-2,5,8-triazaspiro[3.5]nonane-6,9-dione]
clearance [1]: 24.2 mL/min/kg
Vd [1]: 2.84 L/kg
half-life [1]: 1.49 h
CDMF IC15 [2]: 1400 nM
